What is called IC50 is the concentration that inhibits the measured activity by half.

Experiment [1] has as its target T1, 5-HT1A receptor (Sus scrofa, UniProt A0A4X1UTF5).
T1 construct: Swine hippocampus was homogenized in a 50 mM Tris-Hcl buffer; from tissue; host or cells: swine hippocampus, membrane fraction
T1 sequence (A0A4X1UTF5 1-422): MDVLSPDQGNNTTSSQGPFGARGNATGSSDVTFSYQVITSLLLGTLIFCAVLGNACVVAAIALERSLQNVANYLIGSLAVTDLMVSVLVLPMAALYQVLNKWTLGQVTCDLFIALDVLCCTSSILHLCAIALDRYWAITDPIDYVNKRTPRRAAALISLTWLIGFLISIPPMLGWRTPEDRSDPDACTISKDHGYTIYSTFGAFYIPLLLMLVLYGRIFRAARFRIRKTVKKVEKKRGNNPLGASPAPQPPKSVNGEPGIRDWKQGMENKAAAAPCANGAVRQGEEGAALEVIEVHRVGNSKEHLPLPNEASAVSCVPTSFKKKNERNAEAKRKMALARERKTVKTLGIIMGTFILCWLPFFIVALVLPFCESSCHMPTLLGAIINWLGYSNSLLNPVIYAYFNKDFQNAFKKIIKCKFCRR
Briefly: Affinity for serotonin 1A receptor: inhibition of [3H]MPPF binding in swine hippocampal membrane fraction. To be noted: for IC50: swine hippocampal membrane, 37°C 30 min; for L/H ratio: low affinity IC50 divided by high affinity IC50, 1 or smaller = no intrinsic activity, 2 or greater = intrinsic activity. From the text: (1) The affinity of a test substance for a 5-HT1A receptor was examined by an inhibition experiment, in which the inhibitory effect of the test substance against the binding of [^3H]-4-(2′-methoxy)phenyl-1-(2′-(N-2″-pyridinyl)-p-fluorobenzamido)ethyl-piperazine (MPPF) that selectively binds to the 5-HT1A receptor in a swine hippocampal membrane fraction was examined. The 5-HT1A receptor that is a G-protein binding receptor becomes a G-protein binding state with addition of MgCl2. In contrast, it becomes a G-protein non-binding state with addition of guanylylimido diphosphate (Gpp(NH)p). […] Thus, both the affinity of a test substance to the receptor that was in a state of not binding to the G-protein and the affinity of the test substance to the receptor that was in a state of binding to the G-protein were obtained. Then, the obtained values were compared to each other, so as to estimate the level of the intrinsic activity of the test substance. Theoretically, when the value (L/H) obtained by dividing the affinity of a test substance to the receptor that is in a low affinity state (IC50 value) by the affinity of a test substance to the receptor that is in a high affinity state (IC50 value) is 1 or less, the intrinsic activity thereof is zero. The greater this value, the higher the intrinsic activity that can be obtained.
Swine hippocampus was homogenized in a 50 mM Tris-Hcl buffer (pH 7.4; hereinafter referred to as buffer A) that had been cooled on ice. The suspension was centrifuged at 40,000×g for 15 minutes. The obtained pellet was suspended in buffer solution A, and the thus obtained solution was then centrifuged at 40,000×g for 15 minutes. The same operation was repeated 2 or 3 times. The finally obtained pellet was suspended in a buffer solution A in an amount 10 times the wet weight of the swine hippocampus, so as to obtain a membrane fraction. The obtained membrane fraction was stored at −80° C. until use.
A mixture (0.5 ml) used for incubation comprised an appropriate amount of the membrane fraction, a test substance with a desired concentration, MgCl2 (final concentration: 10 mM) or Gpp(NH)p (final concentration: 1 mM), [^3H]MPPF (final concentration: 0.5 nM), dimethyl sulfoxide (final concentration: 1% (v/v)), and a 50 mM Tris-Hcl buffer (pH 7.4). The reaction was initiated with addition of the membrane fraction, and the mixture was incubated at 37° C. for 30 minutes. After completion of the incubation, the mixture was subjected to vacuum filtration with a glass filter, using Cell Harvester. The filter was washed with buffer solution A that had been cooled on ice. Thereafter, radioactivity binding to the receptor was measured with a liquid scintillation counter. Non-specific binding was defined as binding detected in the presence of 10 μM WAY-100,635.

Experiment [2] concerns the target T2, serotonin 1A receptor (Mus musculus, UniProt Q64264).
T2 construct: into the rectum of CD-1 (ICR) male mice (25-45 g); from tissue; host or cells: living CD-1 (ICR) male mice (in vivo)
T2 sequence (Q64264 1-421): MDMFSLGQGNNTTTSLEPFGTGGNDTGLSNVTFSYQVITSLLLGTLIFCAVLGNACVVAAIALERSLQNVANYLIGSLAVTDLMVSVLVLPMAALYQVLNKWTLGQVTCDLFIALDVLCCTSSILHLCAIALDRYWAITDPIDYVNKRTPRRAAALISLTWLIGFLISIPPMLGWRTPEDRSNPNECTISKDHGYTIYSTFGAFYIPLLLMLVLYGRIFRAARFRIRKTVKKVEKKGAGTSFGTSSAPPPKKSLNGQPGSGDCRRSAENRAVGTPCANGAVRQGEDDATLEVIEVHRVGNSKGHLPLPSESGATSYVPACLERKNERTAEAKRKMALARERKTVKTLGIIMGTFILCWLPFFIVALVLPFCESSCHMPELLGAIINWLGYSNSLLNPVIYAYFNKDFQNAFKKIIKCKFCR
Briefly: Antagonistic effect on serotonin 1A receptor agonist (8-OH-DPAT)-induced hypothermia in mouse. In kind it is in vivo. The conditions noted are these: CD-1 (ICR) male mice; inhibition of hypothermia by 8-OH-DPAT 0.5 mg/kg sc; test substance 15 minutes before agonist. The method, then: (1) A thermistor probe was inserted at a depth of approximately 2 cm into the rectum of CD-1 (ICR) male mice (25-45 g), so as to measure the body temperature thereof. Body temperature is decreased by subcutaneous administration of serotonin 1A receptor agonist (8-hydroxy-dipropylaminotetralin (8-OH-DPAT) 0;5 mg/kg. Since a serotonin 1A antagonist inhibits such action, the antagonistic effect of a test substance to a serotonin 1A receptor was evaluated using the inhibitory effect of the hypothermia as an index. The test results are shown in Table 2 indicated below. A test substance was administered 15 minutes before the administration of the serotonin 1A agonist. A serotonin 1A partial agonist alone decreases the body temperature, depending on the degree of the agonistic action thereof. In addition, it has a weak antagonistic effect on 8-OH-DPAT-induced hypothermia.

Where [3] appears, read: [3H]MPPF 0.5 nM, receptor in high affinity (G-protein binding, MgCl2 10 mM) state, read-out: High affinity IC50.
[4] abbreviates: [3H]MPPF 0.5 nM, receptor in low affinity (G-protein non-binding, Gpp(NH)p 1 mM) state, read-out: Low affinity IC50.

Where two headings read alike, the source gives them in different places.

As to `CCN1C(=O)CCc2cc(OC)c(CCN3CCC(n4ccc5ccc(C(N)=O)cc54)CC3)cc21` [Compound 59, 1-{1-[2-(1-ethyl-6-methoxy-2-oxo-1,2,3,4-tetrahydroquinolin-7-yl)ethyl]piperidin-4-yl}-1H-indole-6-carboxamide], the IC50 amounted to 0.19 nM in experiment [1] (setting [3]) and 0.12 nM in experiment [1] (setting [4]). For the same molecule, the L/H ratio in experiment [1] was determined as 0.6. Moreover, the ED50 in experiment [2] is given as 0.3 mg/kg, sc.
Regarding `COc1ccc2c(=O)c(C)c(C)oc2c1CCN1CCC(n2ccc3ccc(C(N)=O)cc32)CC1` [Compound 36, 1-{1-[2-(7-methoxy-2,3-dimethyl-4-oxo-4H-chromen-8-yl)ethyl]piperidin-4-yl}-1H-indole-6-carboxamide], the results for the IC50 in experiment [1] (setting [3]) and in experiment [1] (setting [4]) were 0.26 nM and 0.14 nM, respectively. The L/H ratio in experiment [1] is recorded as 0.5. For the same molecule, the ED50 in experiment [2] was 0.2 mg/kg, sc.
Regarding `COc1ccc2c(c1CCN1CCC(n3ccc4ccc(C(N)=O)cc43)CC1)CCN(C)C2=O` [Compound 34, 1-(1-(2-(6-methoxy-2-methyl-1-oxo-1,2,3,4-tetrahydroisoquinolin-5-yl)ethyl)piperidin-4-yl)-1H-indole-6-carboxamide], the IC50 in experiment [1] (setting [3]) turned out to be 0.26 nM; in experiment [1] (setting [4]), 0.2 nM. In addition, the L/H ratio in experiment [1] is reported as 0.8. Also, the ED50 in experiment [2] is recorded as 0.37 mg/kg, sc.
Turning to `COc1ccc2c(C)noc2c1CCN1CCC(n2ccc3ccc(C(N)=O)cc32)CC1` [Compound 1, 1-{1-[2-(6-methoxy-3-methylbenz[d]isoxazol-7-yl)ethyl]piperidin-4-yl}-1H-indole-6-carboxamide], the IC50 in experiment [1] (High affinity IC50, [3H]MPPF 0.5 nM, receptor in high affinity (G-protein binding, MgCl2 10 mM) state) amounted to 0.16 nM; in experiment [1] (Low affinity IC50, [3H]MPPF 0.5 nM, receptor in low affinity (G-protein non-binding, Gpp(NH)p 1 mM) state), 0.26 nM. Further, the L/H ratio in experiment [1] is 1.6. The ED50 in experiment [2] is on record as 0.3 mg/kg, sc.
Consider `COc1cc2c(cc1CCN1CCC(n3ccc4ccc(C(N)=O)cc43)CC1)C(=O)N(C)CC2` [Compound 33, 1-{1-[2-(6-methoxy-2-methyl-1-oxo-1,2,3,4-tetrahydroisoquinoline-7-yl)ethyl]piperidin-4-yl}-1H-indole-6-carboxamide], for which the results for the IC50 in experiment [1] (setting [3]) and in experiment [1] (setting [4]) were 0.17 nM and 0.12 nM, respectively. Further, the L/H ratio in experiment [1] is given as 0.7. Further, the ED50 in experiment [2] is given as 0.12 mg/kg, sc.
In the case of `COc1cc2c(cc1CCN1CCC(n3ccc4ccc(C(N)=O)cc43)CC1)N(C)CCC2` [Compound 53, 1-{1-[2-(6-methoxy-1-methyl-1,2,3,4-tetrahydroquinolin-7-yl)ethyl]piperidin-4-yl}-1H-indole-6-carboxamide], the IC50 in experiment [1] (setting [3]) was found to be 0.31 nM; in experiment [1] (setting [4]), 0.46 nM. Besides, the L/H ratio in experiment [1] turned out to be 1.5. The ED50 in experiment [2] was 0.3 mg/kg, sc.
As for `COc1cc2onc(C)c2cc1CCN1CCC(n2ccc3ccc(C(N)=O)cc32)CC1` [Compound 2, 1-{1-[2-(6-methoxy-3-methylbenzo[d]isoxazol-5-yl)ethyl]piperidin-4-yl}-1H-indole-6-carboxamide], the IC50 in experiment [1] (setting [3]) amounted to 0.27 nM; in experiment [1] (setting [4]) it was 0.35 nM. Moreover, the L/H ratio in experiment [1] came to 1.3. Moreover, the ED50 in experiment [2] is reported as 0.4 mg/kg, sc.
For `CNC(=O)c1ccc2ccn(C3CCN(CCc4c(OC)ccc5c4OC(C)(C)CC5O)CC3)c2c1` (stereo not shown) [Compound 48, 1-{1-[2-(4-hydroxy-7-methoxy-2,2-dimethylchroman-8-yl)ethyl]piperidin-4-yl}-N-methyl-1H-indole-6-carboxamide], the IC50 amounted to 1.2 nM in experiment [1] (setting [3]) and 1.1 nM in experiment [1] (setting [4]). Moreover, the L/H ratio in experiment [1] was found to be 0.9. In addition, the ED50 in experiment [2] is listed as 0.06 mg/kg, sc.
For the molecule `COc1ccc2c(c1CCN1CCC(n3ccc4ccc(C(N)=O)cc43)CC1)OCCC2=O` [Compound 47, 1-{1-[2-(7-methoxy-4-oxochroman-8-yl)ethyl]piperidin-4-yl}-1H-indole-6-carboxamide], the half-maximal inhibitory concentration (IC50) in experiment [1] (setting [3]) and in experiment [1] (setting [4]) was 0.23 nM each time. The L/H ratio in experiment [1] stood at 1. The ED50 in experiment [2] is listed as 0.21 mg/kg, sc.
Regarding `COc1cc2ccccc2cc1CCN1CCC(n2ccc3ccc(C(N)=O)cc32)CC1` [Compound 45, 1-{1-[2-(3-methoxynaphthalen-2-yl)ethyl]piperidin-4-yl}-1H-indole-6-carboxamide], the figures for the IC50 in experiment [1] (setting [3]) and in experiment [1] (setting [4]) were 0.58 nM and 0.69 nM, respectively. Also, the L/H ratio in experiment [1] stood at 1.2. Further, in experiment [2], the ED50 is 0.26 mg/kg, sc.
As to `CCc1nc2cc(CCN3CCC(n4ccc5ccc(C(N)=O)cc54)CC3)c(OC)cc2o1` [Compound 6, 1-{1-[2-(2-ethyl-6-methoxybenzoxazol-5-yl)ethyl]piperidin-4-yl}-1H-indole-6-carboxamide], the concentration for half-maximal inhibition (IC50) in experiment [1] (setting [3]) and in experiment [1] (setting [4]) was 0.2 nM in each case. In addition, the L/H ratio in experiment [1] stood at 1. The ED50 in experiment [2] was 0.35 mg/kg, sc.
As for `COc1ccc2c(c1CCN1CCC(n3ccc4ccc(C(N)=O)cc43)CC1)OC(C)(C)CC2=O` [Compound 22, 1-{1-[2-(7-methoxy-2,2-dimethyl-4-oxochroman-8-yl)ethyl]piperidin-4-yl}-1H-indole-6-carboxamide], the half-inhibitory concentration (IC50) was 0.13 nM in experiment [1] (setting [3]) and 0.1 nM in experiment [1] (setting [4]). In experiment [1], the L/H ratio is reported as 0.8. Besides, the ED50 in experiment [2] was 0.1 mg/kg, sc.
Turning to `COc1ccc2c(=O)ccoc2c1CCN1CCC(n2ccc3ccc(C(N)=O)cc32)CC1` [Compound 35, 1-{1-[2-(7-methoxy-4-oxo-4H-chromen-8-yl)ethyl]piperidin-4-yl}-1H-indole-6-carboxamide], the values for the concentration for half-maximal inhibition (IC50) in experiment [1] (setting [3]) and in experiment [1] (setting [4]) were 0.27 nM and 0.23 nM, respectively. The L/H ratio in experiment [1] was 0.9. Moreover, the ED50 in experiment [2] is listed as 0.2 mg/kg, sc.
